Reference: ChEMBL document CHEMBL4425148, “Cytotoxic prenylated flavones from the stem and root bark of Daphne giraldii” (Bioorg Med Chem Lett, 2016)

Columns and labels:
U-251 = experiment: Cytotoxicity against human U251 cells assessed as reduction in cell growth incubated for 48 hrs by MTT assay; type: functional, cell-based; conditions: U-251, 48 h
A549 = experiment: Cytotoxicity against human A549 cells assessed as reduction in cell growth incubated for 48 hrs by MTT assay; type: functional, cell-based; conditions: A549, 48 h
Bcap37 = experiment: Cytotoxicity against human Bcap37 cells assessed as reduction in cell growth incubated for 48 hrs by MTT assay; type: functional, cell-based; conditions: Bcap37, 48 h
HepG2 [1] = experiment: cells; conditions: Homo sapiens, HepG2, 48 h
MCF7 = experiment: cells; conditions: Homo sapiens, MCF7, 48 h
HepG2 [2] = experiment: Induction of apoptosis in human HepG2 cells assessed as early apoptotic cells at 2 uM after 48 hrs by Annexin V-FITC/propidium iodide based flow cytometric analysis (reference value: 3.33 %); type: functional
HepG2 [3] = experiment: Induction of apoptosis in human HepG2 cells assessed as late apoptotic cells at 2 uM after 48 hrs by Annexin V-FITC/propidium iodide based flow cytometric analysis (reference value: 3.81 %); type: functional
HepG2 [4] = experiment: Induction of apoptosis in human HepG2 cells after 48 hrs by Annexin V-FITC/propidium iodide based flow cytometric analysis; type: functional, cell-based

Compound	IC50 (U-251) [µM]	IC50 (A549) [µM]	IC50 (Bcap37) [µM]	IC50 (HepG2 [1]) [µM]	IC50 (MCF7) [µM]	Activity (HepG2 [2]) [%]	Activity (HepG2 [3]) [%]	Activity (HepG2 [4])
CC(C)=CCc1c(-c2ccc(O)cc2O)oc2c3c(cc(O)c2c1=O)OC(C)(C)C=C3 [MORUSIN]	17.9	24.1	33.1	9.3	11.5			
COc1c(-c2cc(O)c3c(c2)C=CC(C)(C)O3)oc2c3c(cc(O)c2c1=O)OC(C)(C)[C@@H](O)C3	12	5.39	20.8	4.26	6.98	13.77	14.32	Dose-dependent effect
CC(C)=CCc1cc([C@@H]2CC(=O)c3ccc(O)cc3O2)c2c(c1O)OC(C)(C)CC2	> 100	18.4	> 100	> 100	> 100			
O=c1[nH]cc(F)c(=O)[nH]1 [FLUOROURACIL]	38.7	24.7	37.1	39.7				
COc1c(-c2cc(O)c3c(c2)C=CC(C)(C)O3)oc2c(CC=C(C)C)c(O)cc(O)c2c1=O	> 100	66.8	> 100	36.7	76.9			
COc1c(-c2ccc(O)c(O)c2)oc2c(CC=C(C)C)c(O)c(CC=C(C)C)c(O)c2c1=O	17.3	25	45.4	14.1	18.8			
COc1ccc(-c2cc(=O)c3c(O)c(OC)c(O)cc3o2)cc1OC [EUPATILIN]	> 100	> 100	> 100	52.6	90.1			
